Assay results reported in ChEMBL document CHEMBL5725285, “Pyrrole six-membered heteroaryl ring derivative, preparation method thereof, and medicinal uses thereof” (2016).

Experiments:
[1] = biological target: T1, Tyrosine-protein kinase JAK1 (Homo sapiens, UniProt P23458); test: IC50 values of test compounds was calculated from the data of the test compounds in inhibiting the activity of JAK1 kinase at different concentrations.
[2] = biological target: T2, Tyrosine-protein kinase JAK3 (Homo sapiens, UniProt P52333); test: In Vitro Kinase Assay: In vitro kinase assays described below can be used to determine the activity of a test compound for inhibiting the activity of JAK3 kinase. The test compounds were dissolved in dimethyl sulfoxide and diluted with water to a serial concentration gradient as required by the experiment. JAK3 substrates (Cell Signaling Technology, Catalog Number: 1305s) and ATP (2 mM) solution …
T2 sequence (P52333 whole entry): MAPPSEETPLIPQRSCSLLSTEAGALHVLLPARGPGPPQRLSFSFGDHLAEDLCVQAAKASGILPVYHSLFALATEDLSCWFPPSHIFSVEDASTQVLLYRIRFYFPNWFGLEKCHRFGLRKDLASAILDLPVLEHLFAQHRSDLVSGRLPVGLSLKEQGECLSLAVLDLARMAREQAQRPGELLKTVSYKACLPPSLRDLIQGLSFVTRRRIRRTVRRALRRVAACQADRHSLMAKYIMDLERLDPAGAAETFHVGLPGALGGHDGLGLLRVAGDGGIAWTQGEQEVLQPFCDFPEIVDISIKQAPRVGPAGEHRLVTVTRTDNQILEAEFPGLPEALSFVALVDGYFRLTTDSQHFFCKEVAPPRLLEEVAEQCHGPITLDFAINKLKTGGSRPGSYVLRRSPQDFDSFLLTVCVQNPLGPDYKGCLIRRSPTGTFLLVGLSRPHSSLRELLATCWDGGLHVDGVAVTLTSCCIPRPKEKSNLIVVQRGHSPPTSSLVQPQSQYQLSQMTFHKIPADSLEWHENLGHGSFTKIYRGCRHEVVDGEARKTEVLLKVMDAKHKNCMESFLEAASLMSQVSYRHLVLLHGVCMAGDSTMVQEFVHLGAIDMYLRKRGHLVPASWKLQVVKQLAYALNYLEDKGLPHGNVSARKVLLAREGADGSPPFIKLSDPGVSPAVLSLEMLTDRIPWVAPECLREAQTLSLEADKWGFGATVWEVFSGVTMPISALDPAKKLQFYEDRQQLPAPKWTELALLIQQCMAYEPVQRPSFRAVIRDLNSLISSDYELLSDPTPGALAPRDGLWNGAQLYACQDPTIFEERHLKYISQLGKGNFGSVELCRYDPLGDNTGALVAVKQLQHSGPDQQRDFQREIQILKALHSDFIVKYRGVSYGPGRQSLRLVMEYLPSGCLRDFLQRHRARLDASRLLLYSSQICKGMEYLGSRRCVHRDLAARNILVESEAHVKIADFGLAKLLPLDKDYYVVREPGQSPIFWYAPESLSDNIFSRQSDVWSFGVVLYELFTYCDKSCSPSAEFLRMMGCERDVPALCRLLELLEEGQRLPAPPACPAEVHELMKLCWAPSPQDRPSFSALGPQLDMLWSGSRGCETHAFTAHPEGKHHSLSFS

[3] = biological target: T1, Tyrosine-protein kinase JAK1; test: JAK1 Kinase Assay: TBDIn vitro kinase assays described below can be used to determine the activity of a test compound for inhibiting the activity of JAK1 kinase. The test compounds were dissolved in dimethyl sulfoxide and diluted with water to a serial concentration gradient as required in the experiment. JAK1 substrates (Cell Signaling Technology, Catalog Number: 1305s) and ATP (2 mM) solution …

T1 sequence (P23458 whole entry): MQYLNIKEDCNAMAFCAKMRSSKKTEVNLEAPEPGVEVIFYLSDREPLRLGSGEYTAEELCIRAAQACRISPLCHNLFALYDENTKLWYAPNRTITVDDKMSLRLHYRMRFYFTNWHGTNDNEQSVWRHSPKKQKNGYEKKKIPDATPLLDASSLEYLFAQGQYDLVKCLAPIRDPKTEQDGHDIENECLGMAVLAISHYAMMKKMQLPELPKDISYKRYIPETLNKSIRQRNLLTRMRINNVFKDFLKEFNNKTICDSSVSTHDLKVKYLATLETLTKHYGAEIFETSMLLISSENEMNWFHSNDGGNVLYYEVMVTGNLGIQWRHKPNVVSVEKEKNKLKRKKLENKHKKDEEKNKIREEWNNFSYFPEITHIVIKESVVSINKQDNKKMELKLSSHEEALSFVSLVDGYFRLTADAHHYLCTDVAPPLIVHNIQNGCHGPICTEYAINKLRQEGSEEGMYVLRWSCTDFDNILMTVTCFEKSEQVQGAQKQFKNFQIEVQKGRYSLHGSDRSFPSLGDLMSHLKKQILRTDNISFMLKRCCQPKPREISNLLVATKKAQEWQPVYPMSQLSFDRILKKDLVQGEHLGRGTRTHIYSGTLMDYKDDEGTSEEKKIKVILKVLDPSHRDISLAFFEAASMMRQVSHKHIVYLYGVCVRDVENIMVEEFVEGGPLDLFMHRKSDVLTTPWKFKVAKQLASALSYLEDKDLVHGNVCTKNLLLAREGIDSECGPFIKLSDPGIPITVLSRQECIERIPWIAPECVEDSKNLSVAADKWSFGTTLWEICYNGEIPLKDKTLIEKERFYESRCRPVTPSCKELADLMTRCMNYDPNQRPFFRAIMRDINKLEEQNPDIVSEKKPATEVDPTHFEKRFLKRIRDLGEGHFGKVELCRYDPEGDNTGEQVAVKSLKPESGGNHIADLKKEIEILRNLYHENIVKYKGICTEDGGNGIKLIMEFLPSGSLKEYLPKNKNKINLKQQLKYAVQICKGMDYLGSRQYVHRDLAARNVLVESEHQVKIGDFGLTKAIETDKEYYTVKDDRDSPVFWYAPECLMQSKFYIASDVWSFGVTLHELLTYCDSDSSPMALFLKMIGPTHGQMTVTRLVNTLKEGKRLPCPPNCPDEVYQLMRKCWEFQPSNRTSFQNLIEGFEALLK

CN(c1ncnc2[nH]ccc12)[C@H]1C[C@@H]2CN(C(=O)[C@H](O)C(F)(F)F)C[C@@H]2C1 gave an IC50 [1] of 45 nM.

With CN(c1ncnc2[nH]ccc12)[C@@H]1C[C@@H]2CCN(C(=O)Nc3nncs3)C[C@@H]2C1 the IC50 [2] was 148 nM and the IC50 [3] was 40 nM.
